Measurements taken from the NIST ThermoML archive (doi:10.1021/je700408x).
± gives the expanded uncertainty stated by the source.

Conditions: Liquid; for mass density: 303.15 K, 101.33 kPa, Pycnometric method; for vapor or sublimation pressure / Normal boiling temperature: Ebulliometric method (Recirculating still)

| vapor or sublimation pressure (355.05 K) [kPa] | vapor or sublimation pressure (460.95 K) [kPa] | Structure (SMILES) | mass density [kg/m3] | vapor or sublimation pressure (345.45 K) [kPa] | Normal boiling temperature [°C] | vapor or sublimation pressure (417.05 K) [kPa] | vapor or sublimation pressure (391.95 K) [kPa] | vapor or sublimation pressure (357.75 K) [kPa] |
| --- | --- | --- | --- | --- | --- | --- | --- | --- |
| – | – | CC(Cl)(Cl)Cl [1,1,1-trichloroethane] | 1320.97 ± 9.8 | 95.3 ± 2 | 74.20 ± 0.41 | – | – | – |
| – | – | ClC(Cl)C(Cl)Cl [1,1,2,2-tetrachloroethane] | 1578.59 ± 14 | – | 145.20 ± 0.41 | 95.3 ± 2 | – | – |
| 95.3 ± 2 | – | ClCCCl [1,2-dichloroethane] | 1238.41 ± 8.6 | – | 83.80 ± 0.41 | – | – | – |
| – | 95.3 ± 2 | C[S+](C)[O-] [dimethyl sulfoxide] | 1090.4 ± 6.7 | – | 189.04 ± 0.41 | – | – | – |
| – | – | ClC(Cl)=C(Cl)Cl [tetrachloroethene] | 1606.39 ± 14 | – | 121.00 ± 0.41 | – | 95.3 ± 2 | – |
| – | – | ClC=C(Cl)Cl [trichloroethene] | 1451.42 ± 12 | – | 87.10 ± 0.41 | – | – | 95.3 ± 2 |
